The target of data set [1] is T1, CYP1B1 (Homo sapiens, UniProt Q16678).
T1 sequence (Q16678 1-543): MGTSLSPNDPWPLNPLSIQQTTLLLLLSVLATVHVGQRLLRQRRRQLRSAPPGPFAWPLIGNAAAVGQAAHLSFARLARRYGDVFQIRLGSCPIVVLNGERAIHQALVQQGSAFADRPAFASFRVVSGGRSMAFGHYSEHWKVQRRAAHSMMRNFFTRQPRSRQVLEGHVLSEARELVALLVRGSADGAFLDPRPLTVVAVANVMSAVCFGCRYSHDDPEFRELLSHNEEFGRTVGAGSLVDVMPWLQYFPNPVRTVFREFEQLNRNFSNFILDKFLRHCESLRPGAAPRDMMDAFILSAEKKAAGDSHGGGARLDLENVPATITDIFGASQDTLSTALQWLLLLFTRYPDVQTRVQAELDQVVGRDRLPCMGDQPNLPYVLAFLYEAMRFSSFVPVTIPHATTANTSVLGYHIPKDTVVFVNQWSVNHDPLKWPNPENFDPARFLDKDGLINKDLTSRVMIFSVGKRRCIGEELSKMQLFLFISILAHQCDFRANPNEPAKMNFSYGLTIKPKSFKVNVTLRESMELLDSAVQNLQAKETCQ
The data set can be described thus: Fluorometric CYP inhibition assay, ERes dealkylation. It counts as biochemical. The conditions noted are these: for nature of inhibition of CYP1B1 activity: Eadie-Hofstee analysis, reversible; for Ki: apparent Ki, ERes dealkylation.
Experimental: (§2) The test compounds were evaluated for their ability to inhibit the catalytic activity of human CYP1 enzymes by means of high throughput fluorometric detection assays conducted in 96-well microtitre plates as described elsewhere [16, 17]. 7-Ethoxyresorufin (ERes) was used as a substrate for detecting activity of CYP1B1 and 7-ethoxy-3-cyanocoumarin (CEC) was used as a substrate for both CYP1A1 and CYP1A2. Further, the substrates, 3-[2-(NN-diethyl-N-methylamino)ethyl]-7-methoxy-4methylcoumarin (AMMC), 7-benzyloxy-4-trifluoromethylcoumarin (BFC), and CEC were used as substrates for CYP2D6, CYP3A4, and CYP2C19, respectively. The reactions were monitored fluorometrically at 37°C, using a Varian Cary Eclipse fluorescence spectrophotometer.
(§3) IC50 and Ki values were determined by fitting the data in Sigma Plot (version 10.0) and enzyme kinetics module, using nonlinear regression analysis. The apparent Ki values were determined on the basis of visual inspection of Eadie-Hofstee and various statistics to evaluate goodness of fit, such as the size of the sum of squares of residuals, Akaike information criterion, and standard error (Enzyme kinetics module, version 1.3). The data listed represent the average values from three different determinations.
(§4) Data are expressed as mean percentage of control enzyme activity for three independent experiments.

For data set [2], the target named is T2, CYP1A1 (Homo sapiens, UniProt P04798).
T2 sequence (P04798 1-512): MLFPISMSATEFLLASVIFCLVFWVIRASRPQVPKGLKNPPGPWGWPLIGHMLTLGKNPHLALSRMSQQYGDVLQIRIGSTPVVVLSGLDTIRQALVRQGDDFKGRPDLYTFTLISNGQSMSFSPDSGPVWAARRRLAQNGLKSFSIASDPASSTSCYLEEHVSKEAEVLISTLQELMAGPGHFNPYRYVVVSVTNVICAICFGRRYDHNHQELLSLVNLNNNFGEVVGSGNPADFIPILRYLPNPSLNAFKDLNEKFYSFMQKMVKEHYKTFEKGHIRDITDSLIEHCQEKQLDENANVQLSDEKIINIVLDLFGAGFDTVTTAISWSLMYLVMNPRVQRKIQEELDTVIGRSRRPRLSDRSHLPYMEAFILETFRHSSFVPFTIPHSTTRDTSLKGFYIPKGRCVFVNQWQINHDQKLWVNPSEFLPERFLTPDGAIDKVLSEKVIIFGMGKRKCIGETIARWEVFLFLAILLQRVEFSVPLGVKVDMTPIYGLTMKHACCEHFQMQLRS
Nature of the data set: Fluorometric CYP inhibition assay, CEC dealkylation. It counts as biochemical. The conditions noted are these: for nature of inhibition of CYP1A1 activity: Eadie-Hofstee analysis, reversible; for Ki: apparent Ki, CEC dealkylation; for IC50: recombinant CYP1A1, CEC 0.5 μM.
Experimental: as §2, §3, §4

A further data set concerns MCF-7 cells. Nature of the data set: MTS cell viability assay, breast cancer cells. It counts as cell-based. The conditions noted are these: breast cancer cells, 24 h exposure, MTS. (In general: Tetrazolium assays rely on reduction of a dye to a coloured formazan, in cell work by metabolically active cells.)
The nature of data set [3]: MTS cell viability assay, breast cancer cells. It counts as cell-based. The conditions noted are these: human, MCF-7 breast cancer cells; at 60 μM, MCF-7; read-out: impact on cell viability.
Experimental: (§5) Cells were maintained at 37°C with 5% CO2 in Corning 75 cm^2 culture flasks. Cells were exposed to a given isolate or known anticancer agent for 24 h. Following the appropriate treatments, cell viability was evaluated using an MTS assay according to the manufacturer’s instructions [14]. All assays were performed at least three times and were monitored spectrophotometrically at 590 nm [15]. Cell viability was recorded as percentage relative to vehicle solvent-treated control.
A further data set has as its system HepG2 cells. Nature of the data set: MTS cell viability assay, liver cancer cells. It counts as cell-based. The following applies: liver cancer cells, 24 h exposure, MTS. The procedure:
(§1) Cell lines (CCD18 Co, HepG2 and MCF-7) were maintained in ATCC-formulated Eagle’s Minimum Essential Medium and HT29 was maintained in McCoy’s 5a Modified Medium supplemented with 10% fotal bovine serum (Atlas; Fort Collins, CO, USA), 10 mM HEPES solution, 100 mM L-glutamine penicillin streptomycin solution, 3 g/L glucose, and 1.5 g/L of sodium bicarbonate. Cells were maintained at 37°C with 5% CO2 in Corning 75 cm^2 culture flasks. Cells were exposed to a given isolate or known anticancer agent for 24 h. Following the appropriate treatments, cell viability was evaluated using an MTS assay according to the manufacturer’s instructions. All assays were performed at least three times and were monitored spectrophotometrically at 590 nm. Cell viability was recorded as percentage relative to vehicle solvent-treated control.

Data set [4] in a line: MTS cell viability assay, liver cancer cells. It counts as cell-based. The following applies: human, HepG2 liver cancer cells; at 60 μM, HepG2; read-out: impact on cell viability. As for the experimental part: as §1
The next data set concerns the target T3, CYP1A2 (Homo sapiens, UniProt P05177).
T3 sequence (P05177 1-516): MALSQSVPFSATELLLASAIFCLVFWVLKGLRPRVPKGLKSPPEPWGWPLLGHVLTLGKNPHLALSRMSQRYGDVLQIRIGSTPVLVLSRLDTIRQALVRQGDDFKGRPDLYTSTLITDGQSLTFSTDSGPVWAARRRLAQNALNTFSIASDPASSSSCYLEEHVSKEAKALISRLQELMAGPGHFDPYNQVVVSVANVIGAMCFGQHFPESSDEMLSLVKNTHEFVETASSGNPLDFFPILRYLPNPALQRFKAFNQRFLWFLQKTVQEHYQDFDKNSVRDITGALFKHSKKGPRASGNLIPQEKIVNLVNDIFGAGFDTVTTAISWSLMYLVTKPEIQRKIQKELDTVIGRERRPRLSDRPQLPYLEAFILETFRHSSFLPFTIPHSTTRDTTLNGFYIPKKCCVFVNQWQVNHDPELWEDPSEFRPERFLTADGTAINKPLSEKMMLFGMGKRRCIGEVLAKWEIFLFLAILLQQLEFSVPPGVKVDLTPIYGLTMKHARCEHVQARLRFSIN
The data set can be described thus: Fluorometric CYP inhibition assay, CEC dealkylation. It counts as biochemical. The conditions noted are these: for IC50: recombinant CYP1A2, CEC 5 μM.

A further data set deals with CYP3A4 (Homo sapiens, UniProt P08684). The data set can be described thus: Fluorometric CYP inhibition assay, BFC debenzylation. It counts as in vitro ADME.
Data set [5] deals with T4, CYP2D6 (Homo sapiens, UniProt P10635). Nature of the data set: in vitro. The conditions noted are these: recombinant CYP2D6.
Experimental: as §2, §3, §4
The test system of another data set is HT29 cells. Nature of the data set: MTS cell viability assay, colon cancer cells. It counts as cell-based. The conditions noted are these: colon cancer cell line, 24 h exposure, MTS; for IC50: Homo sapiens, HT-29. The procedure: as §1
Data set [6] in a line: MTS cell viability assay, colon cancer cells. It counts as cell-based. The following applies: human, HT29 colon cancer cells; at 60 μM, HT29; read-out: impact on cell viability. As for the experimental part:
as §1

The next data set deals with CCD18 Co cells. Nature of the data set: MTS cell viability assay, normal colon cells. It counts as cell-based. The conditions noted are these: normal colon cell line, 24 h exposure, MTS; for IC50: Homo sapiens, CCD-18Co. The procedure: as §1
Data set [7] in a line: MTS cell viability assay, normal colon cells. It counts as cell-based. The following applies: human, CCD18 Co normal colon cells; at 60 μM, CCD18 Co; read-out: impact on cell viability. As for the experimental part: as §1
Data set [8] addresses T5, CYP2C19 (Homo sapiens, UniProt P33261). The data set can be described thus: Fluorometric CYP inhibition assay, CEC dealkylation. It counts as in vitro ADME. The following applies: recombinant CYP2C19, CEC 25 μM.
Experimental: as §2, §3, §4
Data set [9] deals with T5, CYP2C19. The following applies: read-out: published IC50 CYP2C19; published value for known inhibitor; cited from earlier work.
In data set [10] the target is T4, CYP2D6. Nature of the data set: biochemical.
Experimental: as §2, §3, §4
The subject of data set [11] is CYP1A1. On the set-up: method as in PMID 10188874. The following applies: MCF-7 breast cancer cells; cited from earlier work.
The target in data set [12] is T2, CYP1A1. The following applies: published value for known inhibitor; cited from earlier work.
The target in data set [13] is T1, CYP1B1. The conditions noted are these: published value for known inhibitor; cited from earlier work.
Setting [14] is: recombinant CYP1B1, ERes 0.37 μM, read-out: IC50 CYP1B1.

For orientation: IC50 means the point on the concentration scale where inhibition reaches its midpoint. As usually defined, the viability is a per cent measure of how many cells are alive, often set against a control.

Entries after “also recorded” stand apart in the source; their conditions may differ. Where two headings read alike, the source gives them in different places. Some results are limits rather than exact numbers.

T5 sequence (P33261 whole entry): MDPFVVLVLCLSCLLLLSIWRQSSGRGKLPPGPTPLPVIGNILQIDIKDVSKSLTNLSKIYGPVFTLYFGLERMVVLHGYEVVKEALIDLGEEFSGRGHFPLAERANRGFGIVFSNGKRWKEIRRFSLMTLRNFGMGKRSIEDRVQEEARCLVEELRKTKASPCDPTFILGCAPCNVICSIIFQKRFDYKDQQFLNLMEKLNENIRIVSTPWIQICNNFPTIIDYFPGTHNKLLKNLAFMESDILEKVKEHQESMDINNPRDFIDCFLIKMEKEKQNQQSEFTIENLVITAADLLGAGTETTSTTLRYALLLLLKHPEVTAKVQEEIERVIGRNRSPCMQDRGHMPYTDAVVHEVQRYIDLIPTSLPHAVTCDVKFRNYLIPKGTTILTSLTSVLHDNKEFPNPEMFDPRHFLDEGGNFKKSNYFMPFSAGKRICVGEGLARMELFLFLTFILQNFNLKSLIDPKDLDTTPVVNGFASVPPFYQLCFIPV
T4 sequence (P10635 whole entry): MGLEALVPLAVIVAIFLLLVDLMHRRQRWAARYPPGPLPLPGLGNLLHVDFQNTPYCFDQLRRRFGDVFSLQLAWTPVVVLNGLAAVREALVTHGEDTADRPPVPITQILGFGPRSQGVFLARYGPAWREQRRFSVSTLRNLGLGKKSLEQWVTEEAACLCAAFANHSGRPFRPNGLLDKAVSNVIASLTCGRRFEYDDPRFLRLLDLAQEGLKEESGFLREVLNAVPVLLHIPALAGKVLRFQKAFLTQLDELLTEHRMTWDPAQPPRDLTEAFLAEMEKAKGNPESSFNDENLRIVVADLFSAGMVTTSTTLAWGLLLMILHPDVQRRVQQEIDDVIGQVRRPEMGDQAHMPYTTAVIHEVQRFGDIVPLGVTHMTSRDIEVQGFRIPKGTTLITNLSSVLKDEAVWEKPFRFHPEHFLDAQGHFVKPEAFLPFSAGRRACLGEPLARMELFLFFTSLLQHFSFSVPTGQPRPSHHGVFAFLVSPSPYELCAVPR
CYP3A4, sequence (P08684 whole entry): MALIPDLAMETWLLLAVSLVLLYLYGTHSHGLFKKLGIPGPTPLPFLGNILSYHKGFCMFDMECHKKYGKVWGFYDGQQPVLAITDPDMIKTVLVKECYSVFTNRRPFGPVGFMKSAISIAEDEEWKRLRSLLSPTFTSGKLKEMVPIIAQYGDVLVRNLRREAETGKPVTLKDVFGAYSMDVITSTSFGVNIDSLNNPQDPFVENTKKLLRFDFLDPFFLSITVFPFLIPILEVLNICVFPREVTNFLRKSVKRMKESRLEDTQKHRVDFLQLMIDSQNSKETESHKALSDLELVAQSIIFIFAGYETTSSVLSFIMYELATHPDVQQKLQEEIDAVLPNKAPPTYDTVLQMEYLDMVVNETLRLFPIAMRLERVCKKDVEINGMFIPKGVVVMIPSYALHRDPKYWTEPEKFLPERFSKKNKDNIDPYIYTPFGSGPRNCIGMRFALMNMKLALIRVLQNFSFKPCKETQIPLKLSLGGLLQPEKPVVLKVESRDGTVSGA
Experimental for CYP1A2: as §2, §3, §4
Experimental for CYP3A4: as §2, §3, §4
Experimental for MCF-7 cells: as §5

Turning to `CC(C)(O)CCCC1(C)CC(=O)c2cc(O)c(Br)cc2O1` (centres unmarked) [PBQ1, 7-Hydroxycymopochromanone], the “nature of inhibition of CYP1B1 activity” value at CYP1B1 [1] is reported as “uncompetitive inhibition”. The Ki was found to be 0.26 ± 0.03 µM at CYP1B1 [1]; 3.07 ± 0.69 µM at CYP1A1 [2]; 9.16 ± 4.68 µM on CYP1A2 (apparent Ki, CEC dealkylation). Further, the half-maximal inhibitory concentration (IC50) at CYP1B1 [1] (human) turned out to be 1.42 ± 0.14 µM; at CYP1A2 (human, probe 7-ethoxy-3-cyanocoumarin (CEC)) it was 9.75 ± 0.0365 µM; on CYP3A4 (human, recombinant enzyme) it was 5.07 ± 3.54 µM; on CYP2D6 [5], 1.03 ± 0.4 µM. The “nature of inhibition of CYP1A1 activity” value at CYP1A1 [2] is reported as “partial non competitive; also recorded: partial noncompetitive inhibition”. For the same compound, the “IC50 cell viability MCF-7” value with MCF-7 cells is “NI (no impact (<10% inhibition at 60 μM))”. Also, the viability at 24 h, 60 µM in data set [3], in data set [4], in [6] and in data set [7] was below 10% each time. Further, the “IC50 cell viability HepG” value with HepG2 cells is recorded as “NI (no impact (<10% inhibition at 60 μM))”. Moreover, on CYP1A2 (Eadie-Hofstee analysis, reversible), the “nature of inhibition of CYP1A2 activity” value is “noncompetitive inhibition”. Further, the “IC50 cell viability HT29” value in the data set on HT29 cells was “NI (no impact (<10% inhibition at 60 μM))”. Besides, in the data set on CCD18 Co cells, the “IC50 cell viability CCD18 Co” value was “NI (no impact (<10% inhibition at 60 μM))”.
Consider `CCC1(c2ccccc2)C(=O)NC(=O)N(Cc2ccccc2)C1=O` (single isomer, unassigned; (-)) [(−)-N-3-Benzyl-phenobarbital, reference compound], for which the IC50 on CYP2C19 [8] was 0.3 ± 0.01 µM; on CYP2C19 [9], 0.25 µM.
`C/C(=C\C(=O)c1cc(O)c(Br)cc1O)CCCC(C)(C)O` [PBQ2, 7-hydroxycymopolone]: the IC50 at CYP2C19 [8] turned out to be 0.12 ± 0.06 µM; on CYP1B1 [1] (setting [14]), 0.14 ± 0.04 µM; at CYP1A1 [2] it was 0.93 ± 0.26 µM; on CYP1A2, 10.6 ± 6.75 µM; on CYP3A4 (recombinant CYP3A4, BFC 50 μM, read-out: IC50 CYP3A4), 8.31 ± 4.67 µM; with HT29 cells, 19.8 ± 0.46 µM. For the same compound, the results for the IC50 with CCD18 Co cells and on CYP2D6 [10] were 55.6 ± 3.28 µM and 2.75 ± 0.96 µM, respectively. Besides, the “nature of inhibition of CYP1B1 activity” value on CYP1B1 [1] is “partial noncompetitive inhibition”. For the same compound, the Ki on CYP1B1 [1] is 0.0047 µM; on CYP1A1 [2], 0.84 ± 0.07 µM. Further, the “nature of inhibition of CYP1A1 activity” value on CYP1A1 [2] is “uncompetitive inhibition”. Moreover, the “IC50 cell viability MCF-7” value in the data set with MCF-7 cells is “NI (no impact (<10% inhibition at 60 μM))”. The “IC50 cell viability HepG” value with HepG2 cells is recorded as “NI (no impact (<10% inhibition at 60 μM))”.
As for `O=c1[nH]cc(F)c(=O)[nH]1` [Fluorouracil, fluorouracil, reference compound], the figures for the half-maximal inhibitory concentration (IC50) with HT29 cells and in the data set on CCD18 Co cells were 23.5 ± 1.12 µM and 55.5 ± 3.71 µM, respectively.
For `O=c1c(O)c(-c2ccccc2)oc2cc(O)cc(O)c12` [galangin], in the data set with CYP1A1 [11], the “nature of inhibition of DMBA-induced CYP1A1” value is recorded as “noncompetitive, dose-dependent”.
As for `CC(=O)N1CCN(c2ccc(OCC3COC(Cn4ccnc4)(c4ccc(Cl)cc4Cl)O3)cc2)CC1` (centres unmarked) [ketoconazole, reference compound], the IC50 at CYP1B1 [1] (setting [14]) was 6.3 ± 1.7 µM; at CYP1A1 [12] it was below 10 µM; at CYP1A1 [2] it was 0.04 ± 0.01 µM; on CYP1B1 [13] it was below 10 µM.

These data come from paper PMC3541164, “Cytotoxic and potent CYP1 inhibitors from the marine algae Cymopolia barbata” (Organic and Medicinal Chemistry Letters, 2012).
